The results in this text go back to patent US9580416B2, “Inhibitors of Bruton's tyrosine kinase” (PHARMACYCLICS LLC, priority 2014, dated 2017).

A word on the IC50: it is the concentration that gives 50% inhibition.

Sequence of Btk (Q06187 whole entry): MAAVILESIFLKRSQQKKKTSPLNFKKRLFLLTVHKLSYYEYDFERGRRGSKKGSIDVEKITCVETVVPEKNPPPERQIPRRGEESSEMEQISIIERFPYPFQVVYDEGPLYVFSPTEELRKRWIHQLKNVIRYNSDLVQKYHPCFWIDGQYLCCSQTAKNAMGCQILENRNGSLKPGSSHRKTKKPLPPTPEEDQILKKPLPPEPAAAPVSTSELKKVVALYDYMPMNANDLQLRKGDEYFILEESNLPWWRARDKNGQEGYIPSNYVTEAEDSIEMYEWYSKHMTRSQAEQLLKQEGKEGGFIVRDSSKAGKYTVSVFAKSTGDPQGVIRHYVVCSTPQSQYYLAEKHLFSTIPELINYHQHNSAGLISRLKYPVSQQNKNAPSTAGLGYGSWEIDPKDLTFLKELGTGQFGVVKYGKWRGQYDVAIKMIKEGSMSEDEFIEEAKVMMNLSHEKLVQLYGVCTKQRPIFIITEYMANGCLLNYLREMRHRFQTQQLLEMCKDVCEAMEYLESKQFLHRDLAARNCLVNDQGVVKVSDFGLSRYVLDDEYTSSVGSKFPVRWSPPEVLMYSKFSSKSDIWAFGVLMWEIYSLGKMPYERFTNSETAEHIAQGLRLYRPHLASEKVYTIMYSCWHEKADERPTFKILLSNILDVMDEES

In the test the target is Btk (Homo sapiens, UniProt Q06187). The experiment in a line: Btk kinase activity, TR-FRET assay. The test is classed as biochemical. Particulars: read-out: Btk (IC50). How it is done:
Btk kinase activity is determined using a time-resolved fluorescence resonance energy transfer (TR-FRET) methodology. Measurements are performed in a reaction volume of 50 μL using 96-well assay plates. Kinase enzyme, inhibitor, ATP (at the Km for the kinase), and 1 […] (Biotin-AVLESEEELYSSARQ-NH2) are incubated in a reaction buffer composed of 20 mM Tris, 50 mM NaCl, MgCl2 (5-25 mM depending on the kinase), MnCl2 (0-10 mM), 1 mM DTT, 0.1 mM EDTA, 0.01% bovine serum albumin, 0.005% Tween-20, and 10% DMSO at pH 7.4 for one hour. The reaction is quenched by the addition of 1.2 equivalents of EDTA (relative to divalent cation) in 25 μL of 1× Lance buffer (Perkin-Elmer). Streptavidin-APC (Perkin-Elmer) and Eu-labeled p-Tyr100 antibody (Perkin-Elmer) in 1× Lance buffer are added in a 25 μL volume to give final concentrations of 100 nM and 2.5 nM, respectively, and the mixture is allowed to incubate for one hour. The TR-FRET signal is measured on a multimode plate reader with an excitation wavelength (λEx) of 330 nm and detection wavelengths (λEm) of 615 and 665 nm. Activity is determined by the ratio of the fluorescence at 665 nm to that at 615 nm. For each compound, enzyme activity is measured at various concentrations of compound. Negative control reactions are performed in the absence of inhibitor in replicates of six, and two no-enzyme controls are used to determine baseline fluorescence levels. Inhibition constants, Ki(app), ware obtained using the program BatchKi (Kuzmic et al. (2000), Anal. Biochem. 286:45-50). IC50s are obtained according to the equation: IC50={Ki(app)/(1+[ATP]/Km^ATP)}+[E]total/2;
For all kinases, [ATP]=Km^ATP, [Btk]total=0.5 nM and [Lck]total=6 nM.
Background: In TR-FRET formats the signal depends on donor and acceptor labels being close together.
As to `Cc1cc(NC(=O)c2cccc(Oc3ccnc4[nH]nc(N[C@@H]5CCCNC5)c34)c2)ccc1C(C)C` [compound 258, (R)—N-(4-isopropyl-3-methylphenyl)-3-(3-(piperidin-3-ylamino)-1H-pyrazolo[3,4-b]pyridin-4-yloxy)benzamide], the concentration for half-maximal inhibition (IC50) was in the range of 100 to 1000 nM. For the compound `c1ccc(Oc2ccc(Oc3ccnc4[nH]nc(NC5CCNCC5)c34)cc2)cc1` [compound 261], the concentration for half-maximal inhibition (IC50) was below 100 nM. In the case of `c1ccc(Oc2ccc(Oc3ccnc4[nH]nc(NCC5CCNCC5)c34)cc2)cc1` [compound 262, 4-(4-phenoxyphenoxy)-N-(piperidin-4-ylmethyl)-1H-pyrazolo[3,4-b]pyridin-3-amine] it was 100 to 1000 nM; in that of `C=CC(=O)N1CCC[C@@H](CNc2n[nH]c3nccc(Oc4ccc(Oc5ccccc5)cc4)c23)C1` [compound 267, (S)-1-(3-((4-(4-phenoxyphenoxy)-1H-pyrazolo[3,4-b]pyridin-3-ylamino)methyl)piperidin-1-yl)prop-2-en-1-one], below 100 nM; in that of `c1ccc(Oc2ccc(Oc3ccnc4[nH]nc(NC[C@H]5CCNC5)c34)cc2)cc1` [compound 264, (S)-4-(4-phenoxyphenoxy)-N-(pyrrolidin-3-ylmethyl)-1H-pyrazolo[3,4-b]pyridin-3-amine], 100 to 1000 nM. The value for `C=CC(=O)N1CCC(CNc2n[nH]c3nccc(Oc4ccc(Oc5ccccc5)cc4)c23)CC1` [compound 266, 1-(4-((4-(4-phenoxyphenoxy)-1H-pyrazolo[3,4-b]pyridin-3-ylamino)methyl)piperidin-1-yl)prop-2-en-1-one] was below 100 nM; that for `C=CC(=O)N1CCC[C@@H](Nc2n[nH]c3nccc(Oc4ccc(C(=O)Nc5ncc(C#N)s5)cc4)c23)C1` [compound 166] was below 100 nM. The value for `C=CC(=O)N1CC[C@@H](Nc2n[nH]c3nccc(Oc4ccc(C(=O)Nc5cc(C(F)(F)F)ccn5)cc4)c23)C1` [compound 171] was below 100 nM; that for `Cc1cc(NC(=O)c2cccc(Nc3ccnc4[nH]nc(O[C@@H]5CCCNC5)c34)c2)ccc1C(C)C` [compound 259, (R)—N-(4-isopropyl-3-methylphenyl)-3-(3-(piperidin-3-yloxy)-1H-pyrazolo[3,4-b]pyridin-4-ylamino)benzamide] was 100 to 1000 nM; that for `CN(C)C/C=C/C(=O)N1CC[C@@H](Nc2n[nH]c3nccc(Oc4ccc(Oc5ccccc5)cc4C(N)=O)c23)C1` [compound 41] was 100 to 1000 nM. As for `Cc1cc(NC(=O)c2cccc(Oc3ccnc4[nH]nc(N[C@@H]5CCNC5)c34)c2)ccc1C(C)C` [compound 249, (R)—N-(4-isopropyl-3-methylphenyl)-3-(3-(pyrrolidin-3-ylamino)-1H-pyrazolo[3,4-b]pyridin-4-yloxy)benzamide], the IC50 lay within 100 to 1000 nM. Turning to `Cc1cnc(-c2cccc(Oc3ccnc4[nH]nc(N[C@@H]5CCCN(C(=O)/C=C/CN(C)C6CC6)C5)c34)c2)s1` [compound 150], the half-inhibitory concentration (IC50) fell in the range of 1000 to 10000 nM. With `CN(C/C=C/C(=O)N1CC[C@@H](N2CC(=O)N(c3ccc(Oc4ccccc4)cc3)c3ccnc4[nH]nc2c34)C1)C1CC1` [compound 239], the half-inhibitory concentration (IC50) was below 100 nM. In the case of `CC#CC(=O)N1CCC[C@@H](Nc2n[nH]c3nccc(Oc4ccc(C(=O)Nc5nnc(C)s5)cc4)c23)C1` [compound 180] it was 1000 to 10000 nM. In the case of `C=CC(=O)N1CC[C@H](CNc2n[nH]c3nccc(Oc4ccc(Oc5ccccc5)cc4)c23)C1` [compound 268, (R)-1-(3-((4-(4-phenoxyphenoxy)-1H-pyrazolo[3,4-b]pyridin-3-ylamino)methyl)pyrrolidin-1-yl)prop-2-en-1-one] it was below 100 nM. As to `C=CC(=O)N1CCC(Nc2n[nH]c3nccc(Oc4ccc(Oc5ccccc5)cc4)c23)CC1` [compound 265, 1-(4-(4-(4-phenoxyphenoxy)-1H-pyrazolo[3,4-b]pyridin-3-ylamino)piperidin-1-yl)prop-2-en-1-one], the IC50 is below 100 nM.

Consider `CCC(=O)N1CCC[C@@H](N(C(=O)CC)c2n[nH]c3ncnc(Oc4ccc(Oc5ccccc5)cc4)c23)C1` [compound 52], for which the concentration for half-maximal inhibition (IC50) fell in the range of 100 to 1000 nM.

Regarding `Cc1nnc(NC(=O)c2ccc(Oc3ccnc4[nH]nc(N[C@@H]5CCCN(C(=O)/C=C/CN(C)C6CC6)C5)c34)cc2)s1` [compound 209, 4-[(3-{[(3R)-1-[(2E)-4-[cyclopropyl(methyl)amino]but-2-enoyl]piperidin-3-yl]amino}-1H-pyrazolo[3,4-b]pyridin-4-yl)oxy]-N-(5-methyl-1,3,4-thiadiazol-2-yl)benzamide], the IC50 was above 10000 nM. The value for `Cc1c[nH]c(NC(=O)c2ccc(Oc3ccnc4[nH]nc(N[C@@H]5CCCN(C(=O)/C=C/CN(C)C6CC6)C5)c34)cc2)n1` [compound 157] was 1000 to 10000 nM; that for `C=CC(=O)N1CCC[C@@H](Nc2n[nH]c3nccc(Oc4ccc(C(=O)N(C)c5ncc(C)s5)cc4)c23)C1` [compound 211, N-methyl-N-(5-methyl-1,3-thiazol-2-yl)-4-[(3-{[(3R)-1-(prop-2-enoyl)piperidin-3-yl]amino}-1H-pyrazolo[3,4-b]pyridin-4-yl)oxy]benzamide] was below 100 nM; that for `C=CC(=O)N1CCC[C@@H](Nc2n[nH]c3nccc(Oc4ccc(-c5cc(C(F)(F)F)ccn5)cc4)c23)C1` [compound 155] was 100 to 1000 nM. The value for `C=CC(=O)N1CCC[C@@H](Nc2n[nH]c3nccc(Oc4ccc(C(=O)N5CCCC(C(F)(F)F)C5)cc4)c23)C1` (some centres unmarked) [compound 160] was below 100 nM; that for `CC(C)NC(=O)Nc1ccc(Oc2ccnc3[nH]nc(N[C@@H]4CCCN(C(=O)/C=C/CN(C)C5CC5)C4)c23)cc1` [compound 147] was above 10000 nM. `Cc1cc(NC(=O)c2cccc(Oc3ccnc4[nH]nc(N[C@H]5CCNC5)c34)c2)ccc1C(C)C` [compound 260, (S)—N-(4-isopropyl-3-methylphenyl)-3-(3-(pyrrolidin-3-ylamino)-1H-pyrazolo[3,4-b]pyridin-4-yloxy)benzamide]: the 50% inhibitory concentration (IC50) was in the range of 100 to 1000 nM. In the case of `CN(C/C=C/C(=O)N1CCC[C@@H](Nc2n[nH]c3nccc(Oc4ccc(C(=O)Nc5cccc(C(F)(F)F)c5)cc4)c23)C1)C1CC1` [compound 138, 4-[(3-{[(3R)-1-[(2E)-4-[cyclopropyl(methyl)amino]but-2-enoyl]piperidin-3-yl]amino}-1H-pyrazolo[3,4-b]pyridin-4-yl)oxy]-N-[3-(trifluoromethyl)phenyl]benzamide] it was 100 to 1000 nM; in that of `Nc1ncnc2[nH]nc(-c3ccc(Oc4ccccc4)cc3)c12` [compound 121, 3-(4-phenoxyphenyl)-1H-pyrazolo[3,4-b]pyrimidin-4-amine], below 100 nM; in that of `CC#CC(=O)N1CC[C@@H](Nc2n[nH]c3nccc(Oc4ccc(C(=O)Nc5cc(C(F)(F)F)ccn5)cc4)c23)C1` [compound 174], below 100 nM. Take `CCNC(=O)Nc1ccc(Oc2ccnc3[nH]nc(N[C@@H]4CCCN(C(=O)/C=C/CN(C)C5CC5)C4)c23)cc1` [compound 136]: the IC50 was above 10000 nM.

For `CN(C/C=C/C(=O)N1CCC[C@@H](Nc2n[nH]c3nccc(Oc4ccc(C(=O)Nc5cc(C(F)(F)F)ccn5)cc4)c23)C1)C1CC1` [compound 212, 4-[(3-{[(3R)-1-[(2E)-4-[cyclopropyl(methyl)amino]but-2-enoyl]piperidin-3-yl]amino}-1H-pyrazolo[3,4-b]pyridin-4-yl)oxy]-N-[4-(trifluoromethyl)pyridin-2-yl]benzamide], the half-maximal inhibitory concentration (IC50) was below 100 nM.
